One assay relates to Wnt/β-catenin pathway. To be noted: cited from earlier work.
For assay [1], the system named is tail-tip fibroblasts (TTFs). Briefly: Neural transdifferentiation of TTFs in presence of JAK inhibitor. The assay is classed as cell-based, mouse. The settings on record: JAK inhibitor 1 0.5 μM from day 4 onward. As for the experimental part: For TTF reprogramming, Lentivirus supernatants were produced and harvested as previously described (Takahashi K. et al. Cell 131(5):861-872 (2007)). Briefly, 293T cells (Invitrogen) were plated at 5×10^6 cells per 100 mm dish and incubated overnight in a 37° C. incubator. Cells were transfected with 4 μg pHAGE2-TetOminiCMV-STEMCCA (29) or FUW-M2rtTA (Addgene) along with packaging mix (1 μg psPAX2 and 3 μg pMD2.G) (Addgene) and FuGENE 6 Transfection Reagent (Roche), according to the manufacturer's instructions. The cells were then cultured in a 32° C. degree incubator, after which supernatants were collected at 48 and 72 hours (post-transfection) and filtered through a 0.45 μm filter (Millipore) before use. TTFs were prepared as previously described (Takahashi, K., et al., Cell 126(4):663-676 (2006)). Briefly, tails (only the final third) were cut into small pieces (less than 0.5 cm) and grown on gelatine-coated plates in MEF medium. Cells that migrated out of the tissue were transferred into new dish and used after one more passage (p3). After two rounds of transduction with STEMCCA and rtTA expressing virus, cells were plated on Geltrex-coated dishes at 2×10^4 cells/cm^2 and reprogrammed as described above. JAK inhibitor 1 (Calbiochem) was added from day 4 onward at 0.5 μM during TTF transdifferentiation. […]

In a further assay the test system is Brachyury-EGFP ES cell. Briefly: FACS analysis of mesodermal markers (Brachyury-GFP, Flk-1). The settings on record: treated day 0-2, harvested day 4.5. The assay is classed as cell-based, mouse. As for the experimental part: To ascertain what role calcium and cAMP might be playing in this early stage of cardiac differentiation, FACS was carried out using two markers involved in mesodermal fates. Specifically, a Brachyury-EGFP ES cell (a gift from the Keller lab) was used to identify cells progressing to a primitive streak type population. Further, cells were stained using a Flk-1 antibody to further delineate axial location of the primitive streak type cells. Briefly, cells were treated with small molecules for day 0-2, and harvested at day 4.5 for analysis.
Cells were harvested into a single cell suspension by treatment with 0.05% trypsin, quenched with serum containing medium, and resuspended in FACS buffer: lx PBS (Ca/Mg^2+ free), 1 mM EDTA, 25 mM HEPES pH 7.0, 1% Fetal Bovine Serum. Cells were then filtered with […], and stored at 4° C. until analysis.

The test system of the next assay is R1 ES cells. Briefly: Serum-free monolayer cardiac differentiation of ES cells, beating colonies. The assay is classed as cell-based, mouse. The settings on record: early treatment window. As for the experimental part:
Having identified the first serum-free monolayer condition for cardiac differentiation of ES cells, we sought to test its efficacy as a platform to discover regulators of cardiomyogenesis. A collection of approximately 200 small molecules and growth factors reported to be influential in developmental processes were assembled. R1 ES cells were grown and plated for differentiation on Matrigel in 24-well plates using the media and growth factors described above. The screening collection was then added and removed from each well at specific time points in order to account for different developmental time windows. The collection was screened at days 0-2, 2-5, and 5-7.
Cells are plated at a density of 200,000 cells/well of a 6-well plate in 2.5 ml of ESGM. 6-well plates are coated overnight at 4° C. with 1 ml of Matrigel (BD Bioscience) diluted 50× from stock concentration. 24 hours after plating, or after sufficient colony size was achieved, cells are switched into chemically defined medium (CDM) and treated with 4 uM BIO (Calbiochem) and 20 ng/ml BMP-4 (R&D). CDM contains RPMI 1640, 0.5×N2, 1×B27 (without Vitamin A), 0.5× Glutamax, 0.55 mM beta-mercaptoethanol, 1× non-essential amino acids, 1× nucleosides. At Day 2, medium is changed, and again CDM containing 4 uM BIO with 20 ng/ml BMP-4 is added to the cells. At Day 5, cells are washed once with PBS and medium is changed to CDM containing 100 ng/ml Dkk-1 (R&D). At Day 7, medium is changed, and again CDM containing 100 ng/ml Dkk-1 is added to the cells. At Day 10, cells are trypsinized (0.05% trypsin) (Approximately 5 minutes at 37° C., or until cells begin to detach) and replated onto gelatin coated 6-well plates in CDM with no additional growth factors. By this time, the cells will have formed tight colonies that will be difficult to disrupt (Supplementary FIG. 2b). […] The trypsin is used primarily to detach the cells rather than to dissociate them to a single cell suspension. It is preferable for the colonies to remain intact. The trypsin is briefly quenched with MEF media, cells are centrifuged, and resuspended in CDM for plating. Medium is refreshed as needed to remove dead cells and debris (every 1 to 2 days).

The subject of assay [2] is mouse embryonic fibroblasts (MEFs). Briefly: Direct cardiac reprogramming of fibroblasts, contracting patch/colony counts. The settings on record: standard reprogramming media with LIF for the first nine days. The assay is classed as cell-based. An excerpt: Having successfully initiated the early cardiogenic program in MEFs, we next sought to induce robust activation of mid-stage cardiac gene expression and to ultimately generate spontaneously contracting patches of cardiac cells, a hallmark of terminal differentiation that is easily observed and quantified. To this end, we treated three-factor transduced MEFs with chemically defined media (CDM) as well as cytokines and small molecules that might enhance cardiogenesis by regulating TGFβ, bone morphogenetic protein (BMP), Hedgehog, Wnt, or Notch pathway activity. Treatments were done individually and in combination, and at different times during the reprogramming process. Despite the general unsuitability of the resulting protocol for iPSC generation, we also explored whether small-molecule inhibition of JAK-STAT (Janus kinase-signal transducer and activator of transcription), PI3K (phosphatidylinositol 3-kinase), or Wnt signalling during the early stages of the protocol might boost the effectiveness of cardiomyogenesis by preventing even a small number of iPSC intermediates from forming. Finally, we experimented with a more gradual transition between different media by lowering FBS concentration step-wise in increments of 1-4% over 3-6 days (immediately prior to switching to CDM). […] During this initial nine-day period, the small-molecule JAK inhibitor JD is continuously kept in the media at a concentration of 0.5 μM. From day nine onwards, the cells are cultured in CDM, with the cardioinductive growth factor BMP4 (Snyder, A. et al., J Cell Biochem 93, 224-32 (2004)) being added at 20 ng/ml for the first five days (FIG. 1b).
All MEFs (129S2/SvPasCrlf) were derived according to WiCell protocols (https://www.wicell.org/index.php?option=com_docman&task=doc_download&gid=687). TTFs were a kind gift of Dr. Hans Schöler. Secondary MEFs were derived as previously described (Wernig, M. et al., Nat Biotechnol 26, 916-24 (2008)). All results were initially obtained and confirmed with the Nebulette-LacZ MEFs; to ensure reproducibility and minimize inter-experimental variation, reported results almost exclusively derive from experiments utilizing secondary dox-inducible MEFs using the optimum induction period. MEFs were initially passaged on gelatin-coated (0.1% for 2 hours at 37° C.) tissue culture dishes in DMEM supplemented with 10% FBS, 2 mM Glutamax and 0.1 mM NEAA (all components from Invitrogen, Carlsbad, Calif.). Prior to viral transduction, cells were seeded onto Matrigel (BD Biosciences, Franklin Lakes, N.J.) or Geltrex (Invitrogen)-coated plates (1:40, overnight at 4° C.) at 3.5×10^4 cells per well of a six well plate (7×10^4 cells for TTFs) in the same media. […]

The next assay concerns secondary MEFs. Briefly: Neural transdifferentiation of secondary MEFs with exposure to LIF-containing medium. The assay is classed as cell-based, mouse. As for the experimental part:
NGFP1 Dox-inducible iPS cells (Hanna J. et al., Nature (2009); Hanna, J. et al., Cell 133(2):250-264 (2008)) (Stemgent) were injected into C57BL/6 blastocysts and implanted into surrogate mice (CD1, Harlan). Chimeric embryos were isolated at E12.5-13.5. Heads, developing organs and spinal cords were carefully removed from the embryos and MEFs were prepared and selected as previously described (Hanna J. et al., Nature (2009); Wernig, M. et al., Nat Biotechnol 26(8):916-924 (2008); Hanna, J. et al., Cell 133(2):250-264 (2008)). For reprogramming, secondary MEFs (p3-4) were plated on Geltrex-coated culture dishes at 1.5-2×10^4 cells/cm^2 in MEF medium (Dullbecco's modified Eagle's medium supplemented with 10% fetal bovine serum, 0.1 mM non-essential amino acids, and 2 mM Glutamax). Doxycycline (Sigma-Aldrich, 2-8 μg/ml) treatment was initiated the next morning (Day 0) and continued until the designated day(s). Cells were cultured in MEF medium for an additional day and changed to reprogramming initiation medium (RepM-Ini; knock-out DMEM supplemented with 10% knock-out serum replacer, 5% FBS, 0.1 mM NEAA, 2 mM Glutamax, and 0.055 mM β-mercaptoethanol) for three days. For neural stem/progenitor reprogramming, the medium was changed into neural reprogramming medium (RepM-Neural; Advanced DMEM/F12 and Neurobasal medium were mixed by 1:1 and supplemented with 0.05% bovine serum albumin, 1×N2, 1×B27, 2 mM Glutamax, 0.11 mM β-mercaptoethanol, 20 ng/ml FGF2, 2 ng/ml FGF4, and 20 ng/ml EGF). RepM-Pluri is the same as RepM-Ini, with the addition of 1000 units/ml LIF (Millipore).
Total RNA was extracted from samples at the designated time points using the RNeasy Plus Mini Kit with QiaShredder (Qiagen). One microgram of total RNA per sample was reverse-transcribed using the iScript cDNA synthesis kit (Bio-Rad) and the cDNA was diluted with 130 ul of water. 1/50 of the diluted cDNA was used for quantitative PCR with iQ SYBR Green Supermix on the CFX96 system (Bio-Rad). All qPCR reactions were done in duplicate or triplicate, and the expression data were normalized to both Gapdh and β-actin expression using CFX manager software (Bio-Rad). All primer sequences are listed in previous publications (Hanna J. et al., Nature (2009); Wernig, M. et al., Nat Biotechnol 26(8):916-924 (2008); Greber, B. et al., Cell Stem Cell 6(3):215-226 (2010)).
Samples were washed once with D-PBS (Invitrogen, without Ca^2+ and Mg^2+) and were fixed with a 4% pure-formaldehyde solution (Electron Microscopy Sciences) with 0.15% picric acid (Sigma-Aldrich) in D-PBS for 20 min, followed by three washes with D-PBS. Blocking and permeabilization were done with a 3% BSA (Jackson ImmunoResearch) and 0.3% Triton X-100 (Sigma-Aldrich) solution in D-PBS for 1 hr at room temperature. […]

Turning to `Cc1ccc2nc(NC(=O)CSc3nc4c(c(=O)n3-c3ccccc3)SCC4)sc2c1` [IWP-2, 2-(3,4,6,7-tetrahydro-4-oxo-3-phenylthieno[3,2-d]pyrimidin-2-ylthio)-N-(6-methylbenzo[d]thiazol-2-yl)acetamide], the IC50 with Wnt/β-catenin pathway is 0.027 µM.
For `CC(C)(C)c1nc2c3ccc(F)cc3c3c(=O)[nH]ccc3c2[nH]1` [JAK inhibitor1], in assay [1], the “Pax6 expression of colonies” value is given as “all remaining colonies homogeneously expressed Pax6” and the “decrease in number of colonies” value is given as “around 30%”.
On to `CC(C)NCC(O)COc1cccc2ccccc12` (centres unmarked) [propranolol], for which the “Flk-1 positive portion of GFP+ cells” value in the assay on Brachyury-EGFP ES cell is given as “decreased”. Moreover, the “cardiac differentiation / percentage of beating colonies” value in the assay on R1 ES cells is reported as “greatly decreased cardiac potential”.
For the compound “LIF: leukaemia inhibitory factor, added to standard reprogramming medium”, in assay [2], the “decline in beating colony number” value is about 25 fold and the onset of beating entry is on record as “four-day delay”. For the same compound, the “gene expression of Sox1, Pax6, Nanog, Rex1” value in the assay with secondary MEFs (day 9) is “down-regulation of Sox1 and Pax6 with concomitant up-regulation of Nanog and Rex1”. In addition, the “number of PLZF-expressing colonies” value in the assay on secondary MEFs (day nine, as little as one day LIF exposure) is given as “clearly decreased”. Moreover, in the assay with secondary MEFs (days 9, 11, and 13), the “Sox17, T, and FGF5 expression” value is on record as “increased”. In addition, the “number of SSEA1-expressing cells” value with secondary MEFs (flow cytometry) is given as “increases”.

Source of the values: patent US9556417B2, “Reprogramming of cells to a new fate” (The Scripps Research Institute, priority 2010, dated 2017).
